Test results reported in patent publication US12404318B2, “Combination HBV therapy” (priority 2018, dated 2025).

System: HBV (rAAV8-1.3HBV strain ayw, D type)
Assay: Combination therapy study in AAV-HBV mice (Example 1): serum HBsAg and HBV DNA
Assay type: in vivo, C57BL/6 mice
Experimental: The mice (C57BL/6 strain) were inoculated with the following amount of rAAV8-1.3HBV strain ayw, D type: 1.0×10^11 viral genomes per mouse in 200 μl volume via tail veins injection. Four weeks after viral inoculation, treatment with test compounds was initiated.
Entecavir was administered orally once per day.

## C=C1[C@H](CO)[C@@H](O)C[C@@H]1n1cnc2c(=O)[nH]c(N)nc21 [ETV, entecavir, reference compound]
Treatment 13: ETV 0.001 mg/kg, day 0 post-dose
  HBsAg levels from mouse serum (average log HBsAg content): 4.54 log IU/ml
Treatment 13: ETV 0.001 mg/kg, day 3 post-dose
  HBsAg levels from mouse serum (average log HBsAg content): 4.54 log IU/ml
Treatment 13: ETV 0.001 mg/kg, day 7 post-dose
  HBsAg levels from mouse serum (average log HBsAg content): 4.39 log IU/ml
Treatment 13: ETV 0.001 mg/kg, day 10 post-dose
  HBsAg levels from mouse serum (average log HBsAg content): 4.29 log IU/ml
Treatment 13: ETV 0.001 mg/kg, day 14 post-dose
  HBsAg levels from mouse serum (average log HBsAg content): 4.28 log IU/ml
Treatment 13: ETV 0.001 mg/kg, day 17 post-dose
  HBsAg levels from mouse serum (average log HBsAg content): 4.24 log IU/ml
Treatment 13: ETV 0.001 mg/kg, day 21 post-dose
  HBsAg levels from mouse serum (average log HBsAg content): 4.13 log IU/ml
Treatment 13: ETV 0.001 mg/kg, day 24 post-dose
  HBsAg levels from mouse serum (average log HBsAg content): 4.21 log IU/ml
Treatment 13: ETV 0.001 mg/kg, day 28 post-dose
  HBsAg levels from mouse serum (average log HBsAg content): 3.98 log IU/ml
Treatment 13: ETV 0.001 mg/kg, day 31 post-dose
  HBsAg levels from mouse serum (average log HBsAg content): 4.02 log IU/ml
Treatment 13: ETV 0.001 mg/kg, day 35 post-dose
  HBsAg levels from mouse serum (average log HBsAg content): 3.88 log IU/ml
Treatment 13: ETV 0.001 mg/kg, day 38 post-dose
  HBsAg levels from mouse serum (average log HBsAg content): 3.92 log IU/ml
Treatment 13: ETV 0.001 mg/kg, day 42 post-dose
  HBsAg levels from mouse serum (average log HBsAg content): 3.84 log IU/ml

## HBV02: chemically synthesized double-stranded oligonucleotide (siRNA) linked to a ligand with three GalNAc residues; sense SEQ ID NO:7, antisense SEQ ID NO:8 (sense GUGUGCACUUCGCUUCACA; antisense UGUGAAGCGAAGUGCACACUU; triantennary GalNAc ligand attached, chemically modified, pattern not given here)
AAV/HBV-infected C57BL/6 mice, HBV02 3 mg/kg, HBC34 antibody (HBC34-v7-mu-IgG2a) 15 mg/kg, alone or combined, FIGS. 2A, 2B
  Reduction of serum HBV DNA (viral load) relative to the saline control: ~0.5 log10
AAV/HBV-infected C57BL/6 mice, HBV02 3 mg/kg, HBC34 antibody (HBC34-v7-mu-IgG2a) 15 mg/kg, alone or combined, FIGS. 3A, 3B
  Reduction of serum HBsAg relative to the saline control: 1 log10
Treatment 1: HBV02 3 mg/kg, day 0 post-dose
  HBsAg levels from mouse serum (average log HBsAg content): 4.55 log IU/ml
Treatment 1: HBV02 3 mg/kg, day 3 post-dose
  HBsAg levels from mouse serum (average log HBsAg content): 3.99 log IU/ml
Treatment 1: HBV02 3 mg/kg, day 7 post-dose
  HBsAg levels from mouse serum (average log HBsAg content): 3.67 log IU/ml
Treatment 1: HBV02 3 mg/kg, day 10 post-dose
  HBsAg levels from mouse serum (average log HBsAg content): 3.59 log IU/ml
Treatment 1: HBV02 3 mg/kg, day 14 post-dose
  HBsAg levels from mouse serum (average log HBsAg content): 3.71 log IU/ml
Treatment 1: HBV02 3 mg/kg, day 17 post-dose
  HBsAg levels from mouse serum (average log HBsAg content): 3.69 log IU/ml
Treatment 1: HBV02 3 mg/kg, day 21 post-dose
  HBsAg levels from mouse serum (average log HBsAg content): 3.60 log IU/ml
Treatment 1: HBV02 3 mg/kg, day 24 post-dose
  HBsAg levels from mouse serum (average log HBsAg content): 3.57 log IU/ml
Treatment 1: HBV02 3 mg/kg, day 28 post-dose
  HBsAg levels from mouse serum (average log HBsAg content): 3.57 log IU/ml
Treatment 1: HBV02 3 mg/kg, day 31 post-dose
  HBsAg levels from mouse serum (average log HBsAg content): 3.81 log IU/ml
Treatment 1: HBV02 3 mg/kg, day 35 post-dose
  HBsAg levels from mouse serum (average log HBsAg content): 3.72 log IU/ml
Treatment 1: HBV02 3 mg/kg, day 38 post-dose
  HBsAg levels from mouse serum (average log HBsAg content): 3.72 log IU/ml
Treatment 1: HBV02 3 mg/kg, day 42 post-dose
  HBsAg levels from mouse serum (average log HBsAg content): 3.55 log IU/ml
